Measured values from patent publication US8349880B2, “Bicyclic compounds for the reduction of beta-amyloid production” (Bristol-Myers Squibb Company, priority 2009, dated 2013).

Each compound was assayed on Aβ1-42 production (assay: Cellular assay for inhibition of Aβ1-42 production (H4 APP751 SWE clone 8.20)). Settings: 19 h, H4 APP751 SWE clone 8.20 cells, 19 h incubation; read-out: Activity Rating (Aβ42 cellular IC50, given as a number).
Format: cell-based
Procedure: Cellular assays for inhibition of Aβ1-40 and Aβ1-42 production
H4 cells stably transfected with APP751 containing the Swedish mutation (H4 APP751 SWE clone 8.20, developed at BMS) were maintained in log phase through twice weekly passage at a 1:20 split. For IC50 determinations, 30 μl cells (1.5×10^4 cells/well) in DMEM media containing 0.0125% BSA (Sigma A8412) were plated directly into 384-well compound plates (Costar 3709) containing 0.1 μl serially diluted compound in DMSO. Following incubation for 19 h in 5% CO2 at 37° C., plates were briefly centrifuged (1000 rpm, 5 min). A 10 μl aliquot from each well was transferred to a second assay plate (Costar 3709) for Aβ40 measurements. Antibody cocktails were freshly prepared by dilution into 40 mM Tris-HCl (pH 7.4) with 0.2% BSA and added to assay plates. For Aβ42 measurements, antibodies specific for the Aβ42 neoepitope (565, developed at BMS; conjugated to the Wallac reagent (Perkin Elmer)) and the N-terminal sequence of Aβ peptide (26D6, developed at SIBIA; conjugated to APC (Perkin Elmer)) were mixed and 20 μl of the mixture was added to each well of the incubated cell plate yielding a final concentration of 0.8 ng/well 565 and 75 ng/well 26D6. For the Aβ40 measurements, antibodies specific for the Aβ40 neoepitope (TSD, developed at BMS; conjugated to the Wallac reagent (Perkin Elmer)) and 26D6 as described above were mixed and 20 μl of the mixture was added to the 10 μl aliquots which had been removed previously from the cell plate yielding a final concentration of 1.6 ng/well TSD and 17.5 ng/well 26D6. Assay plates containing antibodies were sealed with aluminum foil and incubated overnight at 4° C. Signal was determined using a Viewlux counter (Perkin Elmer) and IC50 values determined using curve fitting in CurveMaster (Excel Fit based).

| IC50 [nM] | SMILES |
| --- | --- |
| 8 | COc1cc(Nc2nc3n(n2)CCCC3c2ccc(Cl)cc2Cl)ccc1-n1cnc(Cl)c1 (centres unmarked) [Example 12, N-(4-(4-chloro-1H-imidazol-1-yl)-3-methoxyphenyl)-8-(2,4-dichlorophenyl)-5,6,7,8-tetrahydro-[1,2,4]triazolo[1,5-a]pyridin-2-amine] |
| 240 | Cc1nc(C)n(-c2ccc(Nc3nc4n(n3)CCCCC4c3ccc(OCC(F)F)cc3)cc2F)n1 (centres unmarked) [Example 109, 9-(4-(2,2-difluoroethoxy)phenyl)-N-(4-(3,5-dimethyl-1H-1,2,4-triazol-1-yl)-3-fluorophenyl)-6,7,8,9-tetrahydro-5H-[1,2,4]triazolo[1,5-a]azepin-2-amine 2,2,2-trifluoroacetate] |
| 44 | COc1cc(Nc2nc3n(n2)CCCCC3c2ccc(OC(F)(F)F)cc2)cc(F)c1-n1cnc(C)n1 (centres unmarked) [Example 167, N-(3-fluoro-5-methoxy-4-(3-methyl-1H-1,2,4-triazol-1-yl)phenyl)-9-(4-(trifluoromethoxy)phenyl)-6,7,8,9-tetrahydro-5H-[1,2,4]triazolo[1,5-a]azepin-2-amine] |

Same assay, conditions: 19 h, H4 APP751 SWE clone 8.20 cells, 19 h incubation; read-out: Activity Rating (based on Aβ42 cellular IC50 values)

| IC50 [nM] | SMILES |
| --- | --- |
| < 10 | COc1cc(Nc2nc3n(n2)CCC2(CC3c3ccc(F)cc3)OCCO2)ccc1-n1cnc(Cl)c1 (centres unmarked) [Example 144, N-(4-(4-chloro-1H-imidazol-1-yl)-3-methoxyphenyl)-9-(4-fluorophenyl)-5,6,8,9-tetrahydrospiro[[1,2,4]triazolo[1,5-a]azepine-7,2′-[1,3]dioxolan]-2-amine 2,2,2-trifluoroacetate] |
| < 10 | COc1cc(Nc2nc3n(n2)CC[C@](C)(O)C[C@@H]3c2ccc(OC(F)(F)F)cc2)ccc1-n1cnc(Cl)c1 (relative stereo) [Example 152, rel-(7R,9R)-2-(4-(4-chloro-1H-imidazol-1-yl)-3-methoxyphenylamino)-7-methyl-9-(4-(trifluoromethoxy)phenyl)-6,7,8,9-tetrahydro-5H-[1,2,4]triazolo[1,5-a]azepin-7-ol 2,2,2-trifluoroacetate] |
| < 10 | Cc1ncnn1-c1ccc(Nc2nc3n(n2)CCCCC3c2ccc(OC(F)(F)F)c(F)c2)cc1F (centres unmarked) [Example 160, N-(3-fluoro-4-(5-methyl-1H-1,2,4-triazol-1-yl)phenyl)-9-(3-fluoro-4-(trifluoromethoxy)phenyl)-6,7,8,9-tetrahydro-5H-[1,2,4]triazolo[1,5-a]azepin-2-amine] |
| 10 to 100 | COc1cc(Nc2nc3n(n2)CCCCC3c2ccc(OCC(F)(F)F)cc2)c(F)cc1-n1cnc(C)n1 (centres unmarked) [Example 116, N-(2-fluoro-5-methoxy-4-(3-methyl-1H-1,2,4-triazol-1-yl)phenyl)-9-(4-(2,2,2-trifluoroethoxy)phenyl)-6,7,8,9-tetrahydro-5H-[1,2,4]triazolo[1,5-a]azepin-2-amine] |
| < 10 | Cc1ncnn1-c1ccc(Nc2nc3n(n2)CCCC[C@H]3c2ccc(OCC(F)(F)F)cc2)cc1F (single isomer, unassigned) [Example 111] |
| 10 to 100 | Cc1ncn(-c2ccc(Nc3nc4n(n3)CCCC4c3ccc(OC(F)(F)F)cc3)cc2F)n1 (centres unmarked) [Example 122, N-(3-fluoro-4-(3-methyl-1H-1,2,4-triazol-1-yl)phenyl)-8-(4-(trifluoromethoxy)phenyl)-5,6,7,8-tetrahydro-[1,2,4]triazolo[1,5-a]pyridin-2-amine 2,2,2-trifluoroacetate] |
| 10 to 100 | Cc1ncnn1-c1ccc(Nc2nc3n(n2)CC[C@@](C)(O)C[C@@H]3c2ccc(F)cc2)cc1F (relative stereo) [Example 151, rel-(7S,9R)-2-(3-fluoro-4-(5-methyl-1H-1,2,4-triazol-1-yl)phenylamino)-9-(4-fluorophenyl)-7-methyl-6,7,8,9-tetrahydro-5H-[1,2,4]triazolo[1,5-a]azepin-7-ol 2,2,2-trifluoroacetate] |
| < 10 | COc1cc(Nc2nc3n(n2)CCCC[C@@H]3c2ccc(OC(F)(F)F)cc2)ccc1-n1cnc(Cl)c1 (single isomer, unassigned) [Example 125] |
| < 10 | COc1cc(Nc2nc3n(n2)CCCC[C@H]3c2ccc(OC(C)C)cc2)ccc1-n1cnc(Cl)c1 (single isomer, unassigned) [Example 103] |
| 10 to 100 | COc1cc(Nc2nc3n(n2)CCCC[C@@H]3c2ccc(OCC(F)(F)F)cc2)ccc1-n1cnc(Cl)c1 (single isomer, unassigned) [Example 107] |
| < 10 | COc1cc(Nc2nc3n(n2)CCCC[C@H]3c2ccc(F)cc2)ccc1-n1cnc(Cl)n1 (single isomer, unassigned) [Example 87] |

The next lines start with the compound.

| SMILES | IC50 [nM] |
| --- | --- |
| COc1cc(Nc2nc3n(n2)CCCC3c2ccc(F)cc2)ccc1-n1cnc(Cl)c1 (centres unmarked) [Example 10, N-(4-(4-chloro-1H-imidazol-1-yl)-3-methoxyphenyl)-8-(4-fluorophenyl)-5,6,7,8-tetrahydro-[1,2,4]triazolo[1,5-a]pyridin-2-amine 2,2,2-trifluoroacetate] | 10 to 100 |
| COc1cc(Nc2nc3c(s2)CCCC3c2ccccc2)ccc1-c1ccnc(C)c1 (centres unmarked) [Example 72, N-(3-methoxy-4-(2-methylpyridin-4-yl)phenyl)-4-phenyl-4,5,6,7-tetrahydrobenzo[d]thiazol-2-amine 2,2,2-trifluoroacetate] | 10 to 100 |
| COc1cc(Nc2nc3c(s2)CCCC3(O)c2ccccc2)ccc1-n1cnc(C)n1 (centres unmarked) [Example 81, 2-(3-methoxy-4-(3-methyl-1H-1,2,4-triazol-1-yl)phenylamino)-4-phenyl-4,5,6,7-tetrahydrobenzo[d]thiazol-4-ol] | 10 to 100 |
| COc1cc(Nc2nc3n(n2)CC=CC[C@@H]3c2ccc(F)cc2)ccc1-n1cnc(C)n1 (single isomer, unassigned) [Example 6] | 10 to 100 |
| COc1cc(Nc2nc3n(n2)CCCCC3c2ccccc2F)ccc1-n1cnc(Cl)c1 (centres unmarked) [Example 56, N-(4-(4-chloro-1H-imidazol-1-yl)-3-methoxyphenyl)-9-(2-fluorophenyl)-6,7,8,9-tetrahydro-5H-[1,2,4]triazolo[1,5-a]azepin-2-amine] | < 10 |
| Fc1ccc(C2CCCCn3nc(Nc4cc(F)c(-n5cnc(Cl)c5)c(F)c4)nc32)cc1 (centres unmarked) [Example 48, N-(4-(4-chloro-1H-imidazol-1-yl)-3,5-difluorophenyl)-9-(4-fluorophenyl)-6,7,8,9-tetrahydro-5H-[1,2,4]triazolo[1,5-a]azepin-2-amine] | < 10 |
| COc1cc(Nc2nc3n(n2)CCCC[C@H]3c2ccc(Cl)cc2Cl)ccc1-n1cnc(Cl)c1 (single isomer, unassigned) [Example 20] | < 10 |
| COc1cc(Nc2nc3n(n2)CCCC[C@@H]3c2ccccc2F)ccc1-n1cnc(Cl)c1 (single isomer, unassigned) [Example 59] | < 10 |
| COc1cc(Nc2nc3n(n2)CCCCC3n2cc(Cl)cn2)ccc1-n1cnc(Cl)c1 (centres unmarked) [Example 42, N-(4-(4-chloro-1H-imidazol-1-yl)-3-methoxyphenyl)-9-(4-chloro-1H-pyrazol-1-yl)-6,7,8,9-tetrahydro-5H-[1,2,4]triazolo[1,5-a]azepin-2-amine 2,2,2-trifluoroacetate] | 10 to 100 |
| COc1cc(Nc2nc3n(n2)CCCC[C@H]3c2ccccc2F)ccc1-n1cnc(Cl)c1 (single isomer, unassigned) [Example 58] | < 10 |
| COc1cc(Nc2nc3n(n2)CCCCC3c2ccc(F)cc2)ccc1-c1cc(C)no1 (centres unmarked) [Example 61, 9-(4-fluorophenyl)-N-(3-methoxy-4-(3-methylisoxazol-5-yl)phenyl)-6,7,8,9-tetrahydro-5H-[1,2,4]triazolo[1,5-a]azepin-2-amine] | 100 to 1000 |
| COc1cc(Nc2nc3n(n2)CCCCC3c2ccc(Cl)cc2)ccc1-c1cnn(C)c1 (centres unmarked) [Example 34, 9-(4-chlorophenyl)-N-(3-methoxy-4-(1-methyl-1H-pyrazol-4-yl)phenyl)-6,7,8,9-tetrahydro-5H-[1,2,4]triazolo[1,5-a]azepin-2-amine 2,2,2-trifluoroacetate] | 10 to 100 |
| COc1cc(Nc2nc3c(s2)CC(=O)CC3c2ccc(F)cc2)ccc1-n1cnc(Cl)c1 (centres unmarked) [Example 75, 2-(4-(4-chloro-1H-imidazol-1-yl)-3-methoxyphenylamino)-4-(4-fluorophenyl)-4,5-dihydrobenzo[d]thiazol-6(7H)-one] | 10 to 100 |
| COc1cc(Nc2nc3n(n2)CCCCC3c2ccc(F)cc2)c(F)cc1-n1cnc(C)n1 (centres unmarked) [Example 28, N-(2-fluoro-5-methoxy-4-(3-methyl-1H-1,2,4-triazol-1-yl)phenyl)-9-(4-fluorophenyl)-6,7,8,9-tetrahydro-5H-[1,2,4]triazolo[1,5-a]azepin-2-amine 2,2,2-trifluoroacetate] | 10 to 100 |
| COc1cc(Nc2nc3c(s2)CCCC3Cc2ccccc2)ccc1-n1cnc(Cl)c1 (centres unmarked) [Example 80, 4-benzyl-N-(4-(4-chloro-1H-imidazol-1-yl)-3-methoxyphenyl)-4,5,6,7-tetrahydrobenzo[d]thiazol-2-amine 2,2,2-trifluoroacetate] | 100 to 1000 |
